# Structures can show the parent of a compound that is named as a salt.
# Test system: von Bezold-Jarisch reflex evoked by 5-HT
# Assay: Antagonism of the von Bezold-Jarisch reflex evoked by 5-HT in the anaesthetised rat
# Assay type: in vivo
# Settings: iv, male rats, urethane anaesthesia, compounds intravenously, 5-HT usually 6 μg/kg i.v., heart rate changes, read-out: ED50 (concentration required to reduce the 5HT-evoked response to 50% of the control response)
# Protocol: Antagonism of the von Bezold-Jarisch reflex
# The compounds were evaluated for antagonism of the von Bezold-Jarisch reflex evoked by 5-HT in the anaesthetised rat according to the following method:
# Male rats, 250-350 g, were anaesthetised with urethane (1.25 g/kg intraperitoneally) and blood pressure and heart rate recorded as described by Fozard J. R. et al., J. Cardiovasc. Pharmacol. 2, 229-245 (1980). A submaximal dose of 5-HT (usually 6 μg/kg) was given repeatedly by the intravenous route and changes in heart rate quantified. Compounds were given intravenously and the concentration required to reduce the 5HT-evoked response to 50% of the control response (ED50) was then determined.
row,Compound,ED50
1,CN1[C@@H]2CC[C@H]1C[C@@H](NC(=O)N1CC3(CCCCC3)c3ccccc31)C2 [Compound 1],3.6 µg/kg
2,CN1[C@@H]2CC[C@H]1C[C@@H](NC(=O)N1CC3(CC3)c3ccccc31)C2 [Compound 6],3.5 µg/kg
3,"O=C(NC1CN2CCC1CC2)N1CC(c2ccccc2)c2ccccc21 (stereo not shown) [Compound 8, N-(1-Azabicyclo[2.2.2]oct-3-yl)2,3-dihydro-3-phenylindol-1-yl urea hydrochloride]",1.2 µg/kg
4,CN1[C@@H]2CC[C@H]1C[C@@H](NC(=O)N1CC3(CCCC3)c3ccccc31)C2 [Compound 10],1.8 µg/kg

# From US4920127A, “Substituted indoles and their use as 5-HT3 receptor antagonists” (Beecham Group p.l.c., priority 1987, dated 1990)
